Experiments:
[1] = test system: platelet aggregation in rats; experiment: ADP-induced platelet aggregation in platelet-rich plasma of rats after oral gavage; assay type: in vivo; conditions: for Maximum platelet aggregation rate (%): blood taken 3 hours after gavage, 20µM ADP, platelet-rich plasma, n=10; for platelet aggregation rate compared with the solvent control group: significance versus solvent control group, doses as in Table 3
Experimental: After oral gavage administration for 3 hours on the same day, blood was collected from the abdominal aorta to obtain platelet-rich plasma from each group. Platelet aggregation was induced by 20µM ADP, and the maximum platelet aggregation rate in platelet-rich plasma was determined by platelet aggregometer, to evaluate and compare the effects of platelet aggregation in rats.

[2] = Stability test (influence factor test, Chinese Pharmacopoeia 2020 General Chapter 9001); conditions: for Decomposition product butylphthalide %: HPLC; for appearance / main peak and butylphthalide content: 30 days under open high-temperature and light exposure
Experimental: An appropriate amount of each compound to be tested was taken, and the influence factor test was conducted according to the General Chapter 9001 of Part 4 of the 2020 Edition of the Chinese Pharmacopoeia. The appearance of the compounds and the content of the main degradation product, butylphthalide, were detected respectively on day 0 and day 30 for each compound. The detection of butylphthalide was performed using high performance liquid chromatography, with a column packed with octadecylsilane-bonded silica gel, and a mobile phase of methanol-water (65:35).

[3] = as stated for CN1523003A, background art; cited from earlier work
MCAO rats [4] = experiment: Cerebral infarct volume (TTC staining) in rat MCAO ischemia-reperfusion model; assay type: in vivo; conditions: for extent of cerebral infarction compared with the model group: 24 h, t-test versus model group, doses as in Table 2; for Percentage of cerebral infarction volume (%): 24 hours after MCAO ischemia, tail vein, single dose, n=10
MCAO rats [5] = experiment: Neurological deficit scoring (Longa method) in rat MCAO ischemia-reperfusion stroke model; conditions: for neurological symptoms of rats compared with the model group: 24 h postoperatively, t-test versus model group, doses as in Table 1; for Score 2h: neurological deficit score 2 h after ischemia (administration started at reperfusion after 2 h); for Score 2h / Score 24h: tail vein, single dose, n=10; for Score 24h: neurological deficit score 24 h post-surgery
Experimental: Administration was initiated upon reperfusion after 2 hours of ischemia. The model and the sham operation group were given an equal volume 5% glucose injection solution via tail vein injection, while the other groups were injected with the corresponding drugs via tail vein, each with a single dose. […] Performing modeling surgery: The rat MCAO model was established with reference to the Longa intraluminal filament occlusion method. Nylon monofilament was cut into 2 cm lengths, the tip was dipped into a tiny amount of molten paraffin, after cooling, the ends of the nylon threads were completely wrapped for later use. The rats were completely anesthetized with 3% sodium pentobarbital (30 mg/kg), and placed supine, and secured on a surgical board. The cervical skin was prepared and disinfected, a 2-cm mid line incision was made. The left common carotid artery was bluntly isolated, and the external and internal carotid arteries were dissected free along the common carotid artery. The distal ends of the common carotid artery and the external carotid artery were ligated, and the internal carotid artery was occluded using hemostatic forceps. A small arteriotomy was made in the common carotid artery and the prepared nylon monofilament was inserted through the opening. The wax-coated tip was inserted into the common carotid artery and advanced into the internal carotid artery, the hemostat was released, and the advancement of the wax tip was stopped when it was 13-16 mm from the opening. The filament was secured, and the cervical incision was closed. After 2 h of occlusion, rats were anesthetized and the filament was withdrawn. In the sham operation group, rats were completely anesthetized with only 3% sodium pentobarbital. After cervical skin preparation and incision, the common carotid artery was bluntly isolated, and the wound immediately closed, without filament insertion. […] Neurological deficit scoring: scoring time: before modeling, 2 h after ischemia, and 24 h post-surgery, all surviving animals were scored in a blinded manner using a modified neurological deficit score. The scoring criteria of Longa's method were as follows: 0: normal neurological function; 1: mild neurological deficit: when suspended by the tail, the animal's left forelimb was flexed; 2: moderate neurological deficit: when placed on a smooth surface, the animal circles to the left side while walking; 3: moderate neurological deficit: at rest, the animal leans to the left side; 4: depressed consciousness with no spontaneous limb movements; 5: unresponsive to stimuli or death. […] Result analysis: The t-test was used to compare the behavioral test scores between groups.

SD rats = experiment: Repeated administration toxicity test in rats (14 days, tail vein); conditions: once daily for 14 consecutive days, n=10
[6] = Solubility test (Chinese Pharmacopoeia 2020 method); assay type: physicochemical
[7] = as stated for CN1523003A, background art; cited from earlier work; remark: listed apart in the source

Compound: CC(=O)Oc1ccccc1C(=O)O [Aspirin, reference compound]
- Maximum platelet aggregation rate (%) ([1]; ig 100 mg/kg): 27.00±6.48 %
- platelet aggregation rate compared with the solvent control group [1]: highly significantly different

Compound: CCCC12CC3CC(CC(N)(C3)C1)C2.CCCCC(O)c1ccccc1C(=O)O (stereo not shown) [Compound 6, 3-n-propyladamantane-1-amine 2-(1-hydroxypentyl)benzoate salt]
- Maximum platelet aggregation rate (%) ([1]; ig 200 mg/kg): 40.30±12.26 %

Compound: CCCCC(O)c1ccccc1C(=O)O.NC1CCC(O)CC1 (stereo not shown) [Compound 13, 4-hydroxycyclohexan-1-amine 2-(1-hydroxypentyl)benzoate salt]
- Maximum platelet aggregation rate (%) ([1]; ig 200 mg/kg): 42.10±5.99 %

Compound: CC(C)(C)N.CCCCC(O)c1ccccc1C(=O)O (stereo not shown) [Tert-butylamine salt, 2-(1-hydroxypentyl)benzoic acid tert-butylamine salt, reference compound]
- Property ([2]; 0 day): White powder
- Decomposition product butylphthalide % ([2]; 0 day): 0.041%
- Property ([2]; high humidity RH92.5%, 30 days): White powder
- Decomposition product butylphthalide % ([2]; high humidity RH92.5%, 30 days): 10.214%
- toxicity [3]: highly toxic

Compound: CCCCC(O)c1ccccc1C(=O)O.N[C@@H]1[C@@H]2C[C@@H]3C[C@H]1C[C@@](O)(C3)C2 (stereo not drawn) [Compound 10, trans-1-hydroxyadamantan-4-amine 2-(1-hydroxypentyl)benzoate salt]
- extent of cerebral infarction compared with the model group (MCAO rats [4]): significantly reduced
- Percentage of cerebral infarction volume (%) (MCAO rats [4]; 0.016 mmol/kg): 25.8±4.52 %
- Maximum platelet aggregation rate (%) ([1]; ig 200 mg/kg): 38.20±12.25 %
- neurological symptoms of rats compared with the model group (MCAO rats [5]): highly significant
- Score 2h (MCAO rats [5]; group dose 0.016 mmol/kg): 2.9±1.52
- Score 24h (MCAO rats [5]; 0.016 mmol/kg): 1.61±1.07

Compound: Bicyclo[2,2,1]heptane-2-amine 2-(1-hydroxypentyl)benzoate salt [Compound 16]
- Maximum platelet aggregation rate (%) ([1]; ig 200 mg/kg): 44.10±5.15 %

Compound: CC1CC1N.CCCCC(O)c1ccccc1C(=O)O (stereo not shown) [Compound 15, 2-methylcyclopropane-1-amine 2-(1-hydroxypentyl)benzoate salt]
- Maximum platelet aggregation rate (%) ([1]; ig 200 mg/kg): 41.10±6.45 %

Compound: CC12CC3CC(C)(C1)CC(N)(C3)C2.CCCCC(O)c1ccccc1C(=O)O (stereo not shown) [Compound 4, 3,5-dimethyladamantane-1-amine 2-(1-hydroxypentyl)benzoate salt]
- extent of cerebral infarction compared with the model group (MCAO rats [4]): significantly reduced
- Percentage of cerebral infarction volume (%) (MCAO rats [4]; 0.016 mmol/kg): 25.1±4.41 %
- Maximum platelet aggregation rate (%) ([1]; ig 200 mg/kg): 38.10±6.24 %
- Mortality rate (%) (SD rats; high dose 105 mg/kg): 0%
- Mortality rate (%) (SD rats; low dose 15 mg/kg): 0%
- Mortality rate (%) (SD rats; medium dose 45 mg/kg): 0%
- Property ([2]; 0 day): White powder
- Decomposition product butylphthalide % ([2]; 0 day): 0.107%
- appearance [2]: remains unchanged
- main peak and butylphthalide content [2]: minimal variation
- Property ([2]; high humidity RH92.5%, 30 days): White powder
- Decomposition product butylphthalide % ([2]; high humidity RH92.5%, 30 days): 0.258%
- Solubility ([6]; medium Water, about 0.01 g sample in 9.0 ml): Completely soluble
- Solubility ([6]; medium pH4.5, about 0.01 g sample in 9.0 ml): Completely soluble
- Solubility ([6]; medium pH6.8, about 0.01 g sample in 9.0 ml): Completely soluble
- neurological symptoms of rats compared with the model group (MCAO rats [5]): highly significant
- Score 2h (MCAO rats [5]; group dose 0.016 mmol/kg): 2.7±1.16
- Score 24h (MCAO rats [5]; 0.016 mmol/kg): 1.50±0.53

Compound: CCCCC1OC(=O)c2ccccc21 (stereo not shown) [Butylphthalide, reference compound]
- extent of cerebral infarction compared with the model group (MCAO rats [4]): significantly reduced
- Percentage of cerebral infarction volume (%) (MCAO rats [4]; 0.053 mmol/kg): 31.0±7.50 %
- Maximum platelet aggregation rate (%) ([1]; ig 200 mg/kg): 57.50±9.05 %
- platelet aggregation rate compared with the solvent control group [1]: significantly different
- neurological symptoms of rats compared with the model group (MCAO rats [5]): significantly improved
- Score 2h (MCAO rats [5]; group dose 0.053 mmol/kg): 2.8±1.03
- Score 24h (MCAO rats [5]; 0.053 mmol/kg): 2.10±0.99

Compound: NC12CC3CC(CC(C3)C1)C2 [Amantadine, amantadine, reference compound]
- extent of cerebral infarction compared with the model group (MCAO rats [4]): no significant inhibitory effect
- Percentage of cerebral infarction volume (%) (MCAO rats [4]; 0.016 mmol/kg): 35.1±4.56%
- neurological symptoms of rats compared with the model group (MCAO rats [5]): no significant improvement
- Score 2h (MCAO rats [5]; group dose 0.016 mmol/kg): 2.5±1.08
- Score 24h (MCAO rats [5]; 0.016 mmol/kg): 3.00±0.82

Compound: CCCCC(O)c1ccccc1C(=O)[O-].[K+] (stereo not shown) [Potassium salt, 2-(1-hydroxypentyl)benzoic acid potassium salt, reference compound]
- extent of cerebral infarction compared with the model group (MCAO rats [4]): significantly reduced
- Percentage of cerebral infarction volume (%) (MCAO rats [4]; 0.016 mmol/kg): 29.7±5.72 %
- Maximum platelet aggregation rate (%) ([1]; ig 200 mg/kg): 48.50±8.29 %
- platelet aggregation rate compared with the solvent control group [1]: highly significantly different
- Property ([2]; 0 day): White powder
- Decomposition product butylphthalide % ([2]; 0 day): 0.090%
- Property ([2]; high humidity RH92.5%, 30 days): Partially deliquescent and liquefied
- Decomposition product butylphthalide % ([2]; high humidity RH92.5%, 30 days): 25.687%
- hygroscopicity [7]: highly hygroscopic
- neurological symptoms of rats compared with the model group (MCAO rats [5]): significantly improved
- Score 2h (MCAO rats [5]; group dose 0.016 mmol/kg): 2.9±0.99
- Score 24h (MCAO rats [5]; 0.016 mmol/kg): 1.90±0.74
- toxicity [3]: greater toxicity

Compound: CCCCC(O)c1ccccc1C(=O)O.NCc1ccccc1 (stereo not shown) [benzylamine salt]
- toxicity [3]: highly toxic

Compound: CCCCC(O)c1ccccc1C(=O)O.c1ccc(CNCCNCc2ccccc2)cc1 [N'N-dibenzylethylenediamine salt, reference compound]
- Maximum platelet aggregation rate (%) ([1]; ig 200 mg/kg): 46.6±10.78 %
- platelet aggregation rate compared with the solvent control group [1]: highly significantly different
- toxicity [3]: lower toxicity

Compound: CCCCC(O)c1ccccc1C(=O)O.NC12CC3CC(CC(C3)C1)C2 (stereo not shown) [Compound 1, amantadine 2-(1-hydroxypentyl)benzoate salt]
- extent of cerebral infarction compared with the model group (MCAO rats [4]): significantly reduced
- Percentage of cerebral infarction volume (%) (MCAO rats [4]; 0.016 mmol/kg): 25.7±5.29 %
- Maximum platelet aggregation rate (%) ([1]; ig 200 mg/kg): 34.60±9.57 %
- Mortality rate (%) (SD rats; high dose 105 mg/kg): 0%
- Mortality rate (%) (SD rats; low dose 15 mg/kg): 0%
- Mortality rate (%) (SD rats; medium dose 45 mg/kg): 0%
- Property ([2]; 0 day): White powder
- Decomposition product butylphthalide % ([2]; 0 day): 0.114%
- appearance [2]: remains unchanged
- main peak and butylphthalide content [2]: minimal variation
- Property ([2]; high humidity RH92.5%, 30 days): White powder
- Decomposition product butylphthalide % ([2]; high humidity RH92.5%, 30 days): 0.298%
- neurological symptoms of rats compared with the model group (MCAO rats [5]): highly significant
- Score 2h (MCAO rats [5]; group dose 0.016 mmol/kg): 2.8±1.14
- Score 24h (MCAO rats [5]; 0.016 mmol/kg): 1.60±0.84

Compound: CCCCC(O)c1ccccc1C(=O)O.NC12CC3CC(C1)C(F)C(C3)C2 (stereo not shown) [Compound 7, 4-fluoroadamantane-1-amine 2-(1-hydroxypentyl)benzoate salt]
- Maximum platelet aggregation rate (%) ([1]; ig 200 mg/kg): 37.90±12.60 %

Compound: CC1C2CC3CC(C2)CC1(N)C3.CCCCC(O)c1ccccc1C(=O)O (stereo not shown) [Compound 3, 2-methyladamantan-1-amine 2-(1-hydroxypentyl)benzoate salt]
- Maximum platelet aggregation rate (%) ([1]; ig 200 mg/kg): 37.50±9.42 %

Compound: CC(C)NC(C)C.CCCCC(O)c1ccccc1C(=O)O (stereo not shown) [Diisopropylamine salt, 2-(1-hydroxypentyl)benzoic acid diisopropylamine salt, reference compound]
- Property ([2]; 0 day): White powder
- Decomposition product butylphthalide % ([2]; 0 day): 0.087%
- Property ([2]; high humidity RH92.5%, 30 days): White powder
- Decomposition product butylphthalide % ([2]; high humidity RH92.5%, 30 days): 8.025%

— EP4685128A1, “NOVEL 2-(1-HYDROXYPENTYL) BENZOIC ACID CYCLOALKYL AMINE SALT” (priority 2023, dated 2024)
